Holding throughout (format): functional
What all share (conditions): Sus scrofa, LLC-PK1, 24 h; read-out: Activity

Assay [1] relates to LLC-PK1. As to the kind of experiment: Renoprotective activity against AAPH-induced oxidative damage in pig LLC-PK1 cells assessed as cell viability at 1 ug/ml after 24 hrs by MTT assay relative to control.
The subject of assay [2] is LLC-PK1. The assay can be described thus: Renoprotective activity against AAPH-induced oxidative damage in pig LLC-PK1 cells assessed as cell viability at 5 ug/ml after 24 hrs by MTT assay relative to control.
For assay [3], the system named is LLC-PK1. The assay can be described thus: Renoprotective activity against AAPH-induced oxidative damage in pig LLC-PK1 cells assessed as cell viability at 10 ug/ml after 24 hrs by MTT assay relative to control.

Six molecules from ChEMBL document CHEMBL1938278, “Protective effect of ginseng sapogenins against 2,2'-azobis (1-aminopropane) dihydrochloride (AAPH)-induced LLC-PK₁ cell damage” (2012) can be followed below.

Regarding `C=C(CCC=C(C)C)[C@H]1CC[C@]2(C)[C@@H]1[C@H](O)C[C@@H]1[C@@]3(C)CC[C@H](O)C(C)(C)[C@@H]3CC[C@]12C`, the viability at 1 µg/mL in assay [1] is 61.8%. The viability at 5 µg/mL in assay [2] amounted to 69.9%. The viability at 10 µg/mL in assay [3] was 85.5%.
As for `C=C(CCC=C(C)C)[C@H]1CC[C@]2(C)[C@@H]1[C@H](O)C[C@@H]1[C@@]3(C)CC[C@H](O)C(C)(C)[C@@H]3[C@@H](O)C[C@]12C`, in assay [1], the viability at 1 µg/mL is 76.9%. Besides, the viability at 5 µg/mL in assay [2] is 94.4%. Moreover, the viability at 10 µg/mL in assay [3] was 101%.
In the same order, the values of `CC(C)=CC/C=C(\C)[C@H]1CC[C@]2(C)[C@@H]1[C@H](O)C[C@@H]1[C@@]3(C)CC[C@H](O)C(C)(C)[C@@H]3CC[C@]12C` are 60.7%, 63.7% and 64.6%.
For the molecule `CC(C)=CC/C=C(\C)[C@H]1CC[C@]2(C)[C@@H]1[C@H](O)C[C@@H]1[C@@]3(C)CC[C@H](O)C(C)(C)[C@@H]3[C@@H](O)C[C@]12C`, the viability at 1 µg/mL in assay [1] worked out at 61.5%. In addition, in assay [2], the viability at 5 µg/mL worked out at 63.3%. Moreover, in assay [3], the viability at 10 µg/mL was 63.3%.
With `CC(C)=CCC[C@](C)(O)[C@H]1CC[C@]2(C)[C@@H]1[C@H](O)C[C@@H]1[C@@]3(C)CC[C@H](O)C(C)(C)[C@@H]3[C@@H](O)C[C@]12C`, the viability at 1 µg/mL in assay [1] came out at 61.1%. In addition, in assay [2], the viability at 5 µg/mL worked out at 73.3%. The viability at 10 µg/mL in assay [3] came out at 85.7%.
Regarding `CC(C)=CCC[C@](C)(O)[C@H]1CC[C@]2(C)[C@@H]1[C@H](O)C[C@@H]1[C@@]3(C)CC[C@H](O)C(C)(C)[C@@H]3CC[C@]12C`, the viability at 1 µg/mL in assay [1] amounted to 62.2%. Moreover, the viability at 5 µg/mL in assay [2] worked out at 72.6%. Besides, the viability at 10 µg/mL in assay [3] was determined as 62.6%.
